Results taken from article PMC12812009, “Optimization of 4‐Amino‐2‐Pyridone Inhibitors of Proprotein Convertase Subtilisin/Kexin Type 9: Integrating Structure–Activity and Structure–Metabolism Relationships” (Chemmedchem, 2025).
Where two headings read alike, the source gives them in different places.

Columns and labels:
[1] = MTT cell viability assay in HepG2 cell cultures; assay type: cell-based, human; conditions: human, HepG2 cells, MTT
Method: (§1) The approach we set‐up to test the new PCSK9i was based on functional assay, which evaluated at the same time compounds cytotoxicity, and their effect on the secreted PCSK9 on the same cell line. First, cell viability was evaluated in HepG2 cell cultures using the MTT assay (CC50 values are reported in Table 1 and Figure 5 ) after 24 h of incubation in starving conditions (0.4% fetal bovine serum (FBS)). The low FBS concentration, and thus low extracellular lipoproteins, stimulates the sterol responsive element binding protein (SREBP) pathway, inducing the expression of LDLR, PCSK9, HMG‐CoA reductase,^[ [28] ^] thus increasing the uptake of exogenous cholesterol and enhancing the synthesis of endogenous cholesterol. This first step allowed us to calculate the CC50 and identify the noncytotoxic concentrations (viability higher than 90%; Table 1), then tested for PCSK9 inhibitory activity.
(§2) Cell viability was assessed using the MTT assay. Cells were seeded in 96‐well plates (2.5 × 10^4 cells/well) in MEM supplemented with 10% v/v FBS and incubated for 24 h. The cells were then treated with the synthesized compounds dissolved in DMSO at increasing concentrations (from 0.5 to 50 µM) in MEM supplemented with 0.4% v/v FBS for 24 h. Simvastatin [20 and 40 µM] and BBR [10 µM] (both from Merck, St. Louis, Missouri, USA) were used as internal controls as PCSK9 inducer and inhibitor, respectively.^[ [21] ^, [34] ^, [35] ^] The cells were then incubated for 2 h with a solution of MTT [1 mg mL^–1] in MEM supplemented with 0.4% v/v FBS, away from light sources. The supernatant was then collected and 200 µL of DMSO was added to each well to solubilize the newly formed formazan. Finally, an aliquot of 100 µL was taken to measure the absorbance at a wavelength of 570 nm using an absorbance microplate reader (Spark Tecan, Switzerland). Every experimental condition was run in duplicate and the average cell viability and standard deviation was calculated. Cell viability was expressed as the percentage of treated cells compared to untreated (basal) cells. CC50 values for each compound were calculated by interpolating the percentage of cell viability through nonlinear regression analysis of the log (inhibition) versus response using GraphPad Prism software version 8.0 (GraphPad Software Inc., La Jolla, CA).

[2] = system: HepG2 cell cultures; assay: MTT cell viability assay in HepG2 cell cultures; assay type: cell-based, human; conditions: 0.5-50.0 μM, HepG2, MTT, 24 h
Method: as §1, §2

[3] = system: secreted PCSK9; assay: PCSK9 secretion in culture medium, ELISA on HepG2 supernatants; assay type: cell-based, human; conditions: HepG2, 24 h; for IC50: ELISA on supernatants, normalized to viability, Figures 5 and 8 and text, read-out: IC50 (anti-PCSK9 activity, PCSK9 secretion); for effect on PCSK9 secretion (in words): non-cytotoxic concentrations
Method: Next, the levels of secreted PCSK9 were quantified by ELISA assay (Figure 5) only on supernatants collected from cells treated with noncytotoxic concentrations of each compound, as reported in Table 1. Simvastatin (Simva) at 20 and 40 μM and berberine (BBR) at 10 μM were included as controls. As described in the literature, simvastatin induces PCSK9 expression as a compensatory mechanism in response to its cholesterol‐lowering effects, being a pharmacological competitor for HMG‐CoA reductase, the rate‐limiting enzyme of the cholesterol biosynthetic pathway.^[ [29] ^] In contrast, BBR, a natural compound, reduces the expression of PCSK9 levels through transcriptional inhibition, thus increasing the LDLR availability on plasma membrane.^[ [30] ^] As additional and distinct mechanism to the latter, BBR is also able to stabilize the transcript of LDLR, thus increasing its half‐life.^[ [31] ^] As expected, cells stimulated with simvastatin released more PCSK9 into the culture medium compared to unstimulated cells, with a statistically significant concentration‐dependent effect (+73% at 20 μM, p < 0.01; +200% at 40 μM, p < 0.0001), while BBR at 10 μM decreased PCSK9 levels in the medium more than 50% (p < 0.0001 vs. basal) (Figure 5).^[ [32] ^] The amount of PCSK9 secreted into the culture media was measured with an appropriate ELISA kit (R&D System, DY3888 and DY008B2) on the supernatants collected during the MTT assay. Every experimental condition was run in duplicate and the average PCSK9 secretion and standard deviation was calculated. A 4PL regression analysis was used to interpolate unknowns with the standard curve using GraphPad Prism v10.2, according to manufacturers’ instructions. The data were normalized onto the corresponding cell viability, and IC50 was then calculated using GraphPad Prism v10.2.

[4] = In vitro metabolic stability with mouse liver microsomes; assay type: in vitro ADME; conditions: for metabolic stability, percentage of intact compound recovered relative to control: MLM 1 mg/ml + NADPH-generating system, 10 µM, HPLC; for metabolic stability, percentage of intact compound recovered relative to control / metabolic stability (in words): 60 min; for metabolic stability (in words): MLM + NADPH-generating system
Method: All newly synthesized LSF derivatives of 5c were biologically evaluated to determine whether the introduced modifications influenced both metabolic stability and anti‐PCSK9 activity. Microsomal stability assays were conducted to assess the impact of LSF modifications on improving the stability of 5c. In these assays, LSF derivatives were incubated with mouse liver microsomes (MLM) and an NADPH‐generating system for 60 min, followed by HPLC analysis. Control samples included compounds and liver microsomes without the NADPH system, allowing for the assessment of nonspecific binding to microsomes. […] Acylated derivatives 12, 13, and 14 achieved stability levels exceeding 95%, as did the bicyclic derivative 7, which exemplifies a dual‐site functionalization.
MLM (pooled male) were obtained from Xenotech, LLC (Cambridge, Kansas City, USA). Glucose‐6‐phosphate (G6P), oxidized nicotinamide‐adenine‐dinucleotide phosphate (NADP^+), magnesium chloride (MgCl2), and glucose‐6‐phosphate‐dehydrogenase (G6PDH) were supplied by Sigma‐Aldrich (Milan, Italy). Metabolic stability assays were modified from Ferlenghi et al.^[ [33] ^] Briefly, samples were prepared in 100 mM phosphate buffered saline (PBS), pH 7.4, containing 1 mg ml^–1 MLM and a NADPH‐generating system (5 mM MgCl2, 10 mM glucose‐6‐phosphate, 2 mM NADP^+, 1.5 U ml^–1 of glucose‐6‐phosphate dehydrogenase). After incubation (37 °C, 5 min stirring), compounds stock solutions in DMSO were added to a final concentration of 10 µM. The final DMSO percentage in samples was kept at 0.5%. After 60 min, single aliquots of reaction mixture were withdrawn, added of two volumes of acetonitrile, centrifuged (10,000 g, 10 min) and the supernatant was analyzed by HPLC. The unspecific binding to MLM was evaluated by means of control samples in which the compounds were incubated in the absence of a NADPH generating system. The apparatus used for HPLC analysis was a Shimadzu instrument, with a reverse‐phase Nova‐Pak column (Waters) (C18 4 μm 3.9 × 150 mm, Waters). The mobile phase, pumped at a flow rate of 1.2 ml min^–1, consisted of water and acetonitrile in either a 50:50 (v/v) ratio (compounds 5c, 6a, 6b, 6c, 7, 8, 12, 13, 14, 17b) or a 40:60 (v/v) ratio (compounds 11 and 15) or a 30:70 (v/v) ratio (for compounds 17a, 18a, 18b). For compounds 9 and 10, a phosphate buffer (5.98 g L^–1 Na2HPO4, 0.19 g L^–1 KH2PO4, adjusted to pH 7.4 with 85% H3PO4 and supplemented with 1.4 mL L^–1 triethylamine; final pH: 8) and acetonitrile (50:50, v/v) were pumped at a flow rate of 2 mL min^–1. In all cases, column temperature was 35 °C, injection volume was 50 µl, and absorbance was monitored at 254 nm. Serial dilutions for the calibration curves were prepared in the interval 0.5–20 µM in either PBS:CH3CN or H2O:CH3CN mixture (50:50, v/v) for compounds 5c, 6a, 6b, 8, 9, 10, 11, 12, 13, 14, 15, 17a, 17b, 18a, 18b, and in acetonitrile for compounds 6c and 7.

[5] = printed in Figures 5 and 8, HepG2, 24 h, read-out: CC50
[6] = Homo sapiens, read-out: secreted PCSK9 change vs. basal

Structure (SMILES): Cc1cc(OCc2ccc(C(F)(F)F)cc2)c(Cc2ccc(C(F)(F)F)cc2)c(=O)n1Cc1ccc(C(F)(F)F)cc1 [Compound 18a, 6‐Methyl‐1,3‐Bis(4‐(Trifluoromethyl)Benzyl)‐4‐((4‐(Trifluoromethyl)Benzyl)Oxy)pyridin‐2(1H)‐One]
- CC50 at 24 h [1, 5]: > 50 µM
- cytotoxicity (in words) [2]: nontoxic at all the concentrations tested
- inhibition at 50 µM [3, 6]: 80%
- IC50 ([3]; Homo sapiens): 2.1 µM
- metabolic stability, percentage of intact compound recovered relative to control [4]: exceeding 95%
- metabolic stability/PCSK9 IC50 ratio (in words) ([4]; with respect to 5c): higher metabolic stability/PCSK9 IC50 ratio

Structure (SMILES): Cc1cc(OCc2cccc(F)c2)c(Cc2cccc(F)c2)c(=O)n1Cc1ccc(Cl)cc1 [Compound 18b, 1‐(4‐Chlorobenzyl)‐3‐(3‐Fluorobenzyl)‐4‐((3‐Fluorobenzyl)Oxy)‐6‐Methylpyridin‐2(1H)‐One]
- CC50 at 24 h [1, 5]: > 50 µM
- cytotoxicity (in words) [2]: nontoxic at all the concentrations tested
- inhibition at 50 µM [3, 6]: 81%
- IC50 ([3]; Homo sapiens): 3.3 µM
- metabolic stability (in words) [4]: did not show any improvement in metabolic stability compared to 5c

Structure (SMILES): Cc1cc(N(Cc2ccc(C(F)(F)F)cc2)C(=O)c2ccccc2)cc(=O)n1Cc1ccc(C(F)(F)F)cc1 [Compound 13, N‐(6‐Methyl‐2‐Oxo‐1‐(4‐(Trifluoromethyl)Benzyl)‐1,2‐Dihydropyridin‐4‐yl)‐N‐(4‐(Trifluoromethyl)Benzyl)Benzamide]
- CC50 at 24 h [1, 5]: > 50 µM
- inhibition at 0.5 µM ([3]; Homo sapiens, 0.5 μM, read-out: secreted PCSK9 change vs. basal): 17%
- inhibition at 5 µM ([3]; Homo sapiens, 5 μM, read-out: secreted PCSK9 change vs. basal): 51%
- metabolic stability, percentage of intact compound recovered relative to control [4]: exceeding 95%

Structure (SMILES): CC(=O)N(Cc1ccc(C(F)(F)F)cc1)c1cc(C)n(Cc2ccc(C(F)(F)F)cc2)c(=O)c1Br [Compound 15, N‐(3‐Bromo‐6‐Methyl‐2‐Oxo‐1‐(4‐(Trifluoromethyl)Benzyl)‐1,2‐Dihydropyridin‐4‐yl)‐N‐(4‐(Trifluoromethyl)Benzyl)Acetamide]
- CC50 at 24 h [1, 5]: > 50 µM
- effect on PCSK9 secretion (in words) [3]: did not inhibit PCSK9 in a dose‐dependent manner
- inhibition at 25 µM ([3]; Homo sapiens, 25 μM, read-out: secreted PCSK9 change vs. basal): 80%
- metabolic stability (in words) [4]: did not result in improved stability over the single‐site modifications in 12 or 6b

Structure (SMILES): Cc1cc(NCc2ccc(C(F)(F)F)cc2)c(CN2CCCC2)c(=O)n1Cc1ccc(C(F)(F)F)cc1 [Compound 9, 6‐Methyl‐3‐(Pyrrolidin‐1‐ylmethyl)‐1‐(4‐(Trifluoromethyl)Benzyl)‐4‐((4‐(Trifluoromethyl)Benzyl)Amino)pyridin‐2(1H)‐One]
- CC50 at 24 h ([1]; 24 h incubation, HepG2, 0.4% FBS, 0.5-50.0 μM, read-out: CC50 (CI 95%)): 22.2 µM
- effect on PCSK9 secretion (in words) [3]: moderate but significant inhibition of PCSK9 secretion
- metabolic stability (in words) [4]: did not exhibit any enhancements relative to 5c
